Like-named read-outs stand apart in the source and are kept apart here.
Key:
PI3 kinase alpha = PI3 kinase alpha (Homo sapiens, UniProt P42336); assay: PI3K ATP depletion assay (Biological Method 1, Assay 3; KinaseGlo luminescence); format: biochemical; conditions: ATP depletion assay, read-out: PI3 Kinase Alpha, IC50
Summary of the method: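 Compound in DMSO was mixed with 10 nM PI3 kinase and 5 μg/mL phosphatidylinositol, and the reaction was started with 2 μM ATP. It ran to about 50% ATP depletion and was stopped with KinaseGlo.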

[1] = tested on: A2780 ovarian cancer cells; assay: Cellular proliferation in A2780 cells, Cell Titer Glo (Biological Method 4); format: cell-based; conditions: Homo sapiens
Summary of the method: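 A2780 cells seeded at 1,000/well in DMEM with 10% FBS, at least 2 h before compound, then exposed 72 h at 37 °C, 5% CO2. Viable cells measured by Cell Titer Glo luminescence; EC50 calculated from duplicate conditions.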

[2] = ovarian cancer cell line A2780, Biological Method 4

Chain of PI3 kinase alpha (P42336 whole entry): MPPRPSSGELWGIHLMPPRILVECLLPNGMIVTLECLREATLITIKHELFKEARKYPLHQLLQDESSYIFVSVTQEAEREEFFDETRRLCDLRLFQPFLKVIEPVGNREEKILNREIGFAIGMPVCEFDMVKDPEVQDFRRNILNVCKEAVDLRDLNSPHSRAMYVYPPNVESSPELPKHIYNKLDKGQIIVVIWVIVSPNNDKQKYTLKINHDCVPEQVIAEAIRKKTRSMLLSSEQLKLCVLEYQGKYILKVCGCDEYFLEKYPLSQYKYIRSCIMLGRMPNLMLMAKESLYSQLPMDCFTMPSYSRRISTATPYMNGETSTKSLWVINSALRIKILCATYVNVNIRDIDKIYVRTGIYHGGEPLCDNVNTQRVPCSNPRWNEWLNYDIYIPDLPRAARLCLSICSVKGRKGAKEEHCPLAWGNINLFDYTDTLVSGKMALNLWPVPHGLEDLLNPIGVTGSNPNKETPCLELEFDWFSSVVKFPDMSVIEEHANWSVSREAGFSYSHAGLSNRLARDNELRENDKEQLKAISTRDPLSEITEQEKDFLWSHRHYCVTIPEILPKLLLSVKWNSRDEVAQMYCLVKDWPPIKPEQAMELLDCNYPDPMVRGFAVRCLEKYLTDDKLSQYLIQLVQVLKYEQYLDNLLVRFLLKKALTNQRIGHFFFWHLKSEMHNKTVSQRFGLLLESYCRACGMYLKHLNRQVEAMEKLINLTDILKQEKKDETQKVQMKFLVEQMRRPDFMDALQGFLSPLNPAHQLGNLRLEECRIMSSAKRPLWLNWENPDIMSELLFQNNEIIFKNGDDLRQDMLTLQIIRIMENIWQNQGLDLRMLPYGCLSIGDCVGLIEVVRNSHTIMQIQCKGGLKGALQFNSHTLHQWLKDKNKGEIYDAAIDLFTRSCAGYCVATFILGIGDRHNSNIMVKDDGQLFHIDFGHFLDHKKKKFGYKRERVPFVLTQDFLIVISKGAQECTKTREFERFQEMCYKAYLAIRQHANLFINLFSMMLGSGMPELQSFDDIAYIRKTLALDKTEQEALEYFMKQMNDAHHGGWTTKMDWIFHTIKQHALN
Chain of PI3 kinase alpha (P27986 whole entry partner): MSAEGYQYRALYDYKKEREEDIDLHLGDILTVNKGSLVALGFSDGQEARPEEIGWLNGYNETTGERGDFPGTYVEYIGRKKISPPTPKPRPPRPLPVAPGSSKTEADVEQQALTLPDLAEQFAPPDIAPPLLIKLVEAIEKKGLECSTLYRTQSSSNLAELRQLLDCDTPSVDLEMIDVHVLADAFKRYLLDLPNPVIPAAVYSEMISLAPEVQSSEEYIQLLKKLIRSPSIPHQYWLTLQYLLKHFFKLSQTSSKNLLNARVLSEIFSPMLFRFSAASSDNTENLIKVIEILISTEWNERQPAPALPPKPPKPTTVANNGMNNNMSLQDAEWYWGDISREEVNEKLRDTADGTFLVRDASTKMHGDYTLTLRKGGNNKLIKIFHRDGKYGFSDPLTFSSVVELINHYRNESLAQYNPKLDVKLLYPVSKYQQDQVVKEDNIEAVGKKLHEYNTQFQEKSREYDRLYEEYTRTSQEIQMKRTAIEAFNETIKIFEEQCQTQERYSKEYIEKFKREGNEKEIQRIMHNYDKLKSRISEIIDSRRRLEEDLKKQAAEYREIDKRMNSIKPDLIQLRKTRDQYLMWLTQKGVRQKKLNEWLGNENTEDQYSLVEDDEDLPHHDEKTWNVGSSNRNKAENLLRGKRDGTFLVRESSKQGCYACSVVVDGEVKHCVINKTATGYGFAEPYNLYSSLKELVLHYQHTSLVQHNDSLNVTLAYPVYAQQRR

Structure (SMILES) | IC50 (PI3 kinase alpha) [µM] | EC50 ([1]; ovarian cancer cell line A2780) [µM] | IC50 (PI3 kinase alpha; Biological Method 1) [µM] | EC50 [1, 2] [µM]
Nc1cc(Cl)c(-c2cc(OC3CCOCC3)nc(N3CCOCC3)n2)cn1 [Compound 328] |  |  | < 1 | < 25
Nc1cc(C(F)(F)F)c(-c2cc(N3CCOC(c4cccnc4)C3)nc(N3CCOCC3)n2)cn1 (stereo not shown) [Compound 338] |  |  | < 1 | < 10
Nc1ncc(-c2cc(N[C@@H]3CN4CCC3CC4)nc(N3CCOCC3)n2)cn1 [Compound 520] | < 1 | < 10 |  | 
Nc1cc(C(F)(F)F)c(-c2cc(-c3ccccc3S(N)(=O)=O)nc(N3CCOCC3)n2)cn1 [Compound 543] | < 1 | < 10 |  | 
CN1CCN(S(=O)(=O)c2cccc(Nc3cc(-c4cnc(N)cc4C(F)(F)F)nc(N4CCOCC4)n3)c2)CC1 [Compound 315] |  |  | < 1 | < 10
COc1ccc(Nc2nc(N3CCOCC3)nc(-c3cnc(N)nc3)c2C)cn1 [Compound 480] | < 1 | < 10 |  | 
Nc1cc(C(F)(F)F)c(-c2cc(Nc3cccc(CN4CCOCC4)c3)nc(N3CCOCC3)n2)cn1 [Compound 314] |  |  | < 1 | < 25
Nc1ncc(-c2cc(OCCCN3CCOCC3)nc(N3CCOCC3)n2)cn1 [Compound 511] | < 1 | < 10 |  | 
Nc1cc(C(F)(F)F)c(-c2cc(N3CCOC(c4ccccc4Cl)C3)nc(N3CCOCC3)n2)cn1 (stereo not shown) [Compound 337] |  |  | < 1 | < 25
Nc1cc(C(F)(F)F)c(-c2nc(N3CCOCC3)nc(N3CCOCC3)c2F)cn1 [Compound 313] |  |  | < 1 | < 25
CC(C)C(=O)N1CCC(Oc2cc(-c3cnc(N)cc3C(F)(F)F)nc(N3CCOCC3)n2)CC1 [Compound 458] | < 1 | < 10 |  | 
Nc1cc(C(F)(F)F)c(-c2cc(Oc3ccc4ncccc4c3)nc(N3CCOCC3)n2)cn1 [Compound 217] |  |  | < 1 | < 10
CC(C)(C)OC(=O)CNc1ccc(Nc2cc(-c3cnc(N)cc3C(F)(F)F)nc(N3CCOCC3)n2)cn1 [Compound 491] | < 1 | < 25 |  | 
Nc1cc(C(F)(F)F)c(-c2cc(N3CCOC(c4ccccc4)C3)nc(N3CCOCC3)n2)cn1 (stereo not shown) [Compound 344] |  |  | < 1 | < 10
Nc1ncc(-c2cc(O[C@@H]3CCCN(C(=O)OC4CCCC4)C3)nc(N3CCOCC3)n2)c(N)n1 [Compound 526] | < 1 | < 10 |  | 
NC(=O)c1ccnc(Nc2cc(-c3cnc(N)cc3C(F)(F)F)nc(N3CCOCC3)n2)c1 [Compound 242] |  |  | < 1 | < 10
CS(=O)(=O)N1CC[C@H](Oc2cc(-c3cnc(N)cc3C(F)(F)F)nc(N3CCOCC3)n2)C1 [Compound 524] | < 1 | < 10 |  | 

Structure (SMILES) | IC50 (PI3 kinase alpha) [µM] | EC50 ([1]; ovarian cancer cell line A2780) [µM] | IC50 (PI3 kinase alpha; Biological Method 1) [µM] | EC50 [1, 2] [µM]
Nc1cc(C(F)(F)F)c(-c2cc(N3CCC(O)CC3)nc(N3CCOCC3)n2)cn1 [Compound 323] |  |  | < 1 | < 25
Nc1cc(C(F)(F)F)c(-c2cc(O[C@H]3CCOC3)nc(N3CCOCC3)n2)cn1 [Compound 26] | < 1 | < 10 |  | 
Nc1cc(C(F)(F)F)c(-c2cc(-c3cncc(S(=O)(=O)CCO)c3)nc(N3CCOCC3)n2)cn1 [Compound 265] |  |  | < 1 | < 10
Nc1ncc(-c2cc(NC3CC3)nc(N3CCOCC3)n2)cn1 [Compound 402] | < 1 | < 10 |  | 
Nc1ccc(-c2cc(N3CCOCC3)nc(N3CCOCC3)n2)c(=O)[nH]1 [Compound 551] | < 1 | < 10 |  | 
N#Cc1ccc(Nc2cc(-c3cnc(N)cc3C(F)(F)F)nc(N3CCOCC3)n2)cc1 [Compound 283] |  |  | < 1 | < 10
Nc1cc(Cl)c(-c2cc(N3CCOC(c4ccccc4)C3)nc(N3CCOCC3)n2)cn1 (stereo not shown) [Compound 342] |  |  | < 1 | < 10
CN1CCC(Oc2cc(-c3cnc(N)nc3)nc(N3CCOCC3)n2)CC1 [Compound 514] | < 1 | < 10 |  | 
CCN(CC)C(=O)Cc1csc(Nc2cc(-c3cnc(N)cc3C(F)(F)F)nc(N3CCOCC3)n2)n1 [Compound 218] |  |  | < 1 | < 10
Nc1cc(C(F)(F)F)c(-c2cc(Nc3ccc(-c4nn[nH]n4)nc3)nc(N3CCOCC3)n2)cn1 [Compound 282] |  |  | < 1 | < 25
Cc1c(Nc2ccc3c(c2)OCCO3)nc(N2CCOCC2)nc1-c1cnc(N)nc1 [Compound 481] | < 1 | < 1 |  | 
Nc1ncc(-c2cc(N3CCCC3)nc(N3CCOCC3)n2)cn1 [Compound 399] | < 1 | < 10 |  | 
Nc1ncc(-c2ccnc(N3CCOCC3)n2)c(=O)[nH]1 [Compound 462] | < 1 | < 10 |  | 
Nc1ncc(-c2cc(N3CCOc4ccccc43)nc(N3CCOCC3)n2)c(C(F)(F)F)n1 [Compound 546] | < 1 | < 10 |  | 
Nc1cc(C(F)(F)F)c(-c2cc(N3CCS(=O)(=O)CC3)nc(N3CCOCC3)n2)cn1 [Compound 331] |  |  | < 1 | < 25
N#Cc1ccnc(Nc2cc(-c3cnc(N)cc3C(F)(F)F)nc(N3CCOCC3)n2)c1 [Compound 239] |  |  | < 1 | < 10
Nc1ncc(-c2cc(O[C@H]3CCCN(C(=O)c4ccc(F)cc4)C3)nc(N3CCOCC3)n2)c(N)n1 [Compound 528] | < 1 | < 10 |  | 

Next, values leading:

IC50 (PI3 kinase alpha) [µM] | EC50 ([1]; ovarian cancer cell line A2780) [µM] | IC50 (PI3 kinase alpha; Biological Method 1) [µM] | EC50 [1, 2] [µM] | Structure (SMILES)
< 1 | < 10 |  |  | COc1ncccc1Nc1cc(-c2ccc(N)nc2)nc(N2CCOCC2)n1 [Compound 448]
 |  | < 1 | < 10 | Nc1ccc(-c2cc(-c3ccc(N)nc3)nc(N3CCOCC3)n2)cn1 [Compound 245]
 |  | < 1 | < 10 | CN1CCC(Oc2ccc(-c3cc(-c4cnc(N)nc4)nc(N4CCOCC4)n3)cn2)CC1 [Compound 277]
 |  | < 1 | < 10 | CN(c1cc(-c2ccc(N)nc2)nc(N2CCOCC2)n1)C1CCOCC1 [Compound 368]
 |  | < 1 | < 25 | Nc1ccc(-c2cc(Cl)nc(N3CCOCC3)n2)cn1 [Compound 369]
 |  | < 1 | < 10 | CC(=O)N1CCc2ccc(Nc3cc(-c4ccc(N)nc4)nc(N4CCOCC4)n3)cc21 [Compound 356]
 |  | < 1 | < 10 | Nc1ccc(-c2cc(Nc3ccnc4c(C(F)(F)F)cccc34)nc(N3CCOCC3)n2)cn1 [Compound 383]
 |  | < 1 | < 10 | CS(=O)(=O)c1cncc(-c2cc(-c3cnc(N)cc3C(F)(F)F)nc(N3CCOCC3)n2)c1 [Compound 266]
< 1 | < 10 |  |  | CN1CCC(Nc2ccc(Nc3cc(-c4ccc(N)nc4)nc(N4CCOCC4)n3)cn2)CC1 [Compound 501]
 |  | < 1 | < 10 | Nc1ccc(-c2cc(Nc3cccnc3)nc(N3CCOCC3)n2)cn1 [Compound 378]
 |  | < 1 | < 10 | Nc1ncc(-c2cc(C(=O)Nc3ccncc3)nc(N3CCOCC3)n2)cn1 [Compound 230]
< 1 | < 10 |  |  | CN(C)c1nc2ccccc2cc1-c1cc(-c2ccc(N)nc2)nc(N2CCOCC2)n1 [Compound 500]
 |  | < 1 | < 10 | Nc1ncc(-c2cc(-c3cccc4ncccc34)nc(N3CCOCC3)n2)cn1 [Compound 280]
 |  | < 1 | < 10 | CC(=O)Nc1ccc(Nc2cc(-c3ccc(N)nc3)nc(N3CCOCC3)n2)cc1 [Compound 360]
 |  | < 1 | < 10 | Nc1ccc(-c2cc(-c3cn[nH]c3)nc(N3CCOCC3)n2)cn1 [Compound 248]
 |  | < 1 | < 10 | Nc1ccc(-c2cc(Nc3ccc(S(=O)(=O)C(F)(F)F)cc3)nc(N3CCOCC3)n2)cn1 [Compound 358]

IC50 (PI3 kinase alpha) [µM] | EC50 ([1]; ovarian cancer cell line A2780) [µM] | IC50 (PI3 kinase alpha; Biological Method 1) [µM] | EC50 [1, 2] [µM] | Structure (SMILES)
 |  | < 1 | < 25 | NC(=O)c1ccccc1-c1cc(-c2ccc(N)nc2)nc(N2CCOCC2)n1 [Compound 254]
 |  | < 1 | < 1 | CC(=O)c1ccc(Nc2cc(-c3ccc(N)nc3)nc(N3CCOCC3)n2)cc1 [Compound 359]
 |  | < 1 | < 25 | Nc1ccc(-c2cc(Nc3ccc(OC(CO)CO)nc3)nc(N3CCOCC3)n2)cn1 [Compound 271]
 |  | < 1 | < 25 | Nc1ccc(-c2cc(Nc3cc(F)ccn3)nc(N3CCOCC3)n2)cn1 [Compound 351]
< 1 | < 25 |  |  | N#Cc1cc(N)ncc1-c1cc(-c2cccnc2F)nc(N2CCOCC2)n1 [Compound 417]
 |  | < 10 | < 25 | COc1ccc(CCNc2cc(-c3ccc(N)nc3)nc(N3CCOCC3)n2)cc1 [Compound 302]
 |  | < 1 | < 10 | Nc1ccc(-c2cc(Nc3ccc4nccnc4c3)nc(N3CCOCC3)n2)cn1 [Compound 377]
 |  | < 1 | < 10 | Nc1ncc(-c2cc(C(=O)Nc3cccnc3)nc(N3CCOCC3)n2)cn1 [Compound 231]
 |  | < 1 | < 25 | Nc1ccc(-c2cc(Nc3cc(Cl)ccn3)nc(N3CCOCC3)n2)cn1 [Compound 349]
< 1 | < 10 |  |  | Nc1ncc(-c2cc(Nc3ccc4[nH]cnc4c3)nc(N3CCOCC3)n2)cn1 [Compound 521]
 |  | < 1 | < 25 | NC(=O)c1ccnc(Nc2cc(-c3ccc(N)nc3)nc(N3CCOCC3)n2)c1 [Compound 348]
< 1 | < 10 |  |  | CC(C)N1CCN(c2ccc(Nc3cc(-c4ccc(N)nc4)nc(N4CCOCC4)n3)cn2)CC1 [Compound 509]
< 1 | < 10 |  |  | CN(C)c1ccc(-c2cc(-c3ccc(N)nc3)nc(N3CCOCC3)n2)cn1 [Compound 505]
< 1 | < 10 |  |  | COc1ccc(Nc2cc(-c3ccc(N)nc3)nc(N3CCOCC3)n2)cc1 [Compound 442]
 |  | < 1 | < 25 | Nc1ncc(-c2cc(NC(=O)Cc3cccnc3)nc(N3CCOCC3)n2)cn1 [Compound 291]

Reference: patent US8217035B2, “Pyrimidine derivatives used as PI-3-kinase inhibitors” (Novartis AG, priority 2006, dated 2012)
